Test results reported in ChEMBL document CHEMBL1140353, “Structure-activity relationships of 1-alkyl-5-(3,4-dichlorophenyl)-5-{2-[3-(substituted)-1-azetidinyl]-ethyl}-2-piperidones. Part 2: Improving oral absorption” (Bioorg Med Chem Lett, 2005).

Columns and labels:
Substance-K receptor [1] = target: T1, Substance-K receptor (Homo sapiens, UniProt P21452); test: Inhibition of human Neurokinin 2 receptor
T1 sequence (P21452 whole entry): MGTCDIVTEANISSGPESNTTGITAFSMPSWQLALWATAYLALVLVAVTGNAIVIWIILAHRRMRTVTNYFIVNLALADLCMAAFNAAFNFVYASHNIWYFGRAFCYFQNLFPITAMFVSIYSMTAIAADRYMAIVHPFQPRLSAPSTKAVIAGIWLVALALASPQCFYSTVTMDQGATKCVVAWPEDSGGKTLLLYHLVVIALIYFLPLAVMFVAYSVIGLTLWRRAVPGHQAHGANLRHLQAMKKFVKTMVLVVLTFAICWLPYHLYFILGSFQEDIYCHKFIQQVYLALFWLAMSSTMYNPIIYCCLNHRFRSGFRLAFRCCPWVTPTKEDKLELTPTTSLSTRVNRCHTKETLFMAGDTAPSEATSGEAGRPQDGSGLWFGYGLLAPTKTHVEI

Substance-K receptor [2] = target: T2, Substance-K receptor (Oryctolagus cuniculus, UniProt P79218); test: pA2 for NK2 receptor of rabbit pulmonary artery; type: functional; details: read-out: pA2 (converted)
T2 sequence (P79218 whole entry): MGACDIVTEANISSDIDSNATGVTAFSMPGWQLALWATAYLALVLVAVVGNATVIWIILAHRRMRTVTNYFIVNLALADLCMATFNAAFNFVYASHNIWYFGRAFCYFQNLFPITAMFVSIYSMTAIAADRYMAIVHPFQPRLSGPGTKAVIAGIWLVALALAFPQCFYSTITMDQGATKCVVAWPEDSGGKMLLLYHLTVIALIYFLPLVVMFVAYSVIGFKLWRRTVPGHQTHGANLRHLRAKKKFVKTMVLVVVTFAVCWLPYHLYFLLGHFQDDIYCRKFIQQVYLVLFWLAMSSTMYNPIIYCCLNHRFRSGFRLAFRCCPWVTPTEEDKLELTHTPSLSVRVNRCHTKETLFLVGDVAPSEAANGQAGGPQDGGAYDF

Homo sapiens [3] = organism: Homo sapiens; test: Ratio of apical basolateral (A-B) and basolateral apical (B-A) determined by Caco-2 assay in human (ER=6/12); type: ADME
[4] = Half life in human microsomal liver cells; type: ADME; details: liver microsomes
Homo sapiens [5] = organism: Homo sapiens; test: Ratio of apical basolateral (A-B) and basolateral apical (B-A) determined by Caco-2 assay in human (ER=60/60); type: ADME
Substance-K receptor [6] = target: T1, Substance-K receptor; test: pKi for human Neurokinin 2 receptor
Homo sapiens [7] = organism: Homo sapiens; test: Ratio of apical basolateral (A-B) and basolateral apical (B-A) determined by Caco-2 assay in human; type: ADME
[8] = Distribution coefficient (Log D) value at pH 7.4; type: physicochemical; details: octanol/water
Homo sapiens [9] = organism: Homo sapiens; test: Ratio of apical basolateral (A-B) and basolateral apical (B-A) determined by Caco-2 assay in human (ER=12/16); type: ADME
Homo sapiens [10] = organism: Homo sapiens; test: Ratio of apical basolateral (A-B) and basolateral apical (B-A) determined by Caco-2 assay in human (ER=1); type: ADME
Homo sapiens [11] = organism: Homo sapiens; test: Ratio of apical basolateral (A-B) and basolateral apical (B-A) determined by Caco-2 assay in human (ratio=12/18); type: ADME
Substance-K receptor [12] = target: T1, Substance-K receptor; test: pA2 for NK2 receptor of Human bladder; type: functional; details: read-out: pA2 (converted)
[13] = Oral absorption of 10 mg/kg tested in rat; type: ADME, organism-based; design: dose 10 mg/kg; details: in vivo, read-out: Absorption
Homo sapiens [14] = organism: Homo sapiens; test: Ratio of apical basolateral (A-B) and basolateral apical (B-A) determined by Caco-2 assay in human; (ratio=1/18); type: ADME
[15] = In vivo clearance of […] mg/kg of compound tested in human; type: ADME, organism-based; details: 10 mg/kg
Homo sapiens [16] = organism: Homo sapiens; test: Ratio of apical basolateral (A-B) and basolateral apical (B-A) determined by Caco-2 assay in human (ER=33/35); type: ADME
Homo sapiens [17] = organism: Homo sapiens; test: Ratio of apical basolateral (A-B) and basolateral apical (B-A) determined by Caco-2 assay in human (ratio=2/3); type: ADME
Substance-P receptor = Substance-P receptor (Homo sapiens, UniProt P25103); test: Inhibitory concentration for Tachykinin 1 receptor of human IM9 cells; type: cell-based, IM-9
Substance-P receptor, sequence (P25103 whole entry): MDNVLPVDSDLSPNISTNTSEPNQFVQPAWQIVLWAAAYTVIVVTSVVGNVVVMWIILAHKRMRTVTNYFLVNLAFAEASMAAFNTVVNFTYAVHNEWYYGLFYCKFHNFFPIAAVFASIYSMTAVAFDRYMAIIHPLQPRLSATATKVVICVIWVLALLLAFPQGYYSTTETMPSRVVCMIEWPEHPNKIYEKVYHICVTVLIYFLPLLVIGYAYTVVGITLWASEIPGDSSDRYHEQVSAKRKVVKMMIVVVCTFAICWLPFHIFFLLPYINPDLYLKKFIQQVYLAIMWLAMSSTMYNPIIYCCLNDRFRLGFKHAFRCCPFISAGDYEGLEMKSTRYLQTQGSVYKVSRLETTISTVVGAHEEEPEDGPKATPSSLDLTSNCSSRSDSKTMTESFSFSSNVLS

[18] = Oral absorption of 20 mg/kg tested in rat; type: ADME, organism-based; design: dose 20 mg/kg; details: in vivo, read-out: Absorption
Homo sapiens [19] = organism: Homo sapiens; test: Ratio of apical basolateral (A-B) and basolateral apical (B-A) determined by Caco-2 assay in human (ER=2/12); type: ADME
Homo sapiens [20] = organism: Homo sapiens; test: Ratio of apical basolateral (A-B) and basolateral apical (B-A) determined by Caco-2 assay in human (ER<2); type: ADME

| SMILES | IC50 (Substance-K receptor [1]) [nM] | Kb (Substance-K receptor [2]) [nM] | half-life [4] [h] | also measured |
| --- | --- | --- | --- | --- |
| CS(=O)(=O)N1CCN(C2CN(CC[C@]3(c4ccc(Cl)c(Cl)c4)CCC(=O)N(CC4CCC(F)(F)CC4)C3)C2)CC1 | 1.26 | 1 | – | Caco-2 permeability (Homo sapiens [3]): Permeable |
| O=C1CC[C@](CCN2CC(N3CCC(F)CC3)C2)(c2ccc(Cl)c(Cl)c2)CN1C1(C2CC2)CCCC1 | – | – | 0.0333 | Caco-2 permeability (Homo sapiens [5]): Permeable; pKi (Substance-K receptor [6]): 10 |
| O=C1CC[C@](CCN2CC(N3CCC(F)CC3)C2)(c2ccc(Cl)c(Cl)c2)CN1CCC1CC1 | 2.51 | 1.58 | – | – |
| NC1CCN(C2CN(CC[C@]3(c4ccc(Cl)c(Cl)c4)CCC(=O)N(CC4CCC(F)(F)CC4)C3)C2)CC1 | 1 | 0.2 | – | Caco-2 permeability (Homo sapiens [7]): < 1 % hr-1; logD [8]: 0.1 |
| O=C1CCN(C2CN(CC[C@]3(c4ccc(Cl)c(Cl)c4)CCC(=O)N(CC4CCC(F)(F)CC4)C3)C2)CC1 | 3.16 | 0.2 | – | – |
| CN(C)S(=O)(=O)N1CCN(C2CN(CC[C@]3(c4ccc(Cl)c(Cl)c4)CCC(=O)N(CC4CC4)C3)C2)CC1 | 15.8 | 10 | – | – |
| O=C1CC[C@](CCN2CC(N3CCOCC3)C2)(c2ccc(Cl)c(Cl)c2)CN1CC1CCCCC1 | 0.794 | 1 | 0.233 | Caco-2 permeability (Homo sapiens [9]): Permeable |
| CCOC1CCN(C2CN(CC[C@]3(c4ccc(Cl)c(Cl)c4)CCC(=O)N(CC4CC4)C3)C2)CC1 | 15.8 | 6.31 | – | Caco-2 permeability (Homo sapiens [10]): 34 % hr-1 |
| O=C1CC[C@](CCN2CC(N3CCOCC3)C2)(c2ccc(Cl)c(Cl)c2)CN1CC1CC1 | 79.4 | 2 | 2 | logD [8]: 2.3; Caco-2 permeability (Homo sapiens [11]): Permeable |
| NS(=O)(=O)N1CCN(C2CN(CC[C@]3(c4ccc(Cl)c(Cl)c4)CCC(=O)N(CC4CC4)C3)C2)CC1 | 3.98 | 1.26 | > 2 | Kb (Substance-K receptor [12]): 1.58 nM; Fa [13]: < 20%; logD [8]: 1.7; Caco-2 permeability (Homo sapiens [14]): Permeable; clearance [15]: < 3 mL/min/kg |
| O=C1CC[C@](CCN2CC(N3CCOCC3)C2)(c2ccc(Cl)c(Cl)c2)CN1C1(C2CC2)CCCC1 | – | 0.251 | < 0.0167 | pKi (Substance-K receptor [6]): 9.5 |
| O=C1CC[C@](CCN2CC(N3CCOCC3)C2)(c2ccc(Cl)c(Cl)c2)CN1CC1CCC(F)(F)CC1 | 7.94 | 1.26 | 1.33 | Caco-2 permeability (Homo sapiens [16]): Permeable |
| NC1CCN(C2CN(CC[C@]3(c4ccc(Cl)c(Cl)c4)CCC(=O)N(CC4CC4)C3)C2)CC1 | 6.31 | 2 | – | Caco-2 permeability (Homo sapiens [17]): Permeable |
| O=C1CC[C@](CCN2CC(N3CCC(F)CC3)C2)(c2ccc(Cl)c(Cl)c2)CN1CC1CCC(F)(F)CC1 | 0.398 | – | > 2 | IC50 (Substance-P receptor): > 10000 nM; Fa [18]: > 80%; Caco-2 permeability (Homo sapiens [10]): > 35 % hr-1 |
| O=C1CC[C@](CCN2CC(N3CCC(F)CC3)C2)(c2ccc(Cl)c(Cl)c2)CN1CC1CC1 | 10 | 2.51 | 1.42 | Caco-2 permeability (Homo sapiens [5]): Permeable |
| O=C1CC[C@](CCN2CC(N3CCC(O)CC3)C2)(c2ccc(Cl)c(Cl)c2)CN1CC1CCC(F)(F)CC1 | 1.26 | 0.0794 | – | logD [8]: 2.2; Caco-2 permeability (Homo sapiens [19]): Permeable |
| CS(=O)(=O)N1CCN(C2CN(CC[C@]3(c4ccc(Cl)c(Cl)c4)CCC(=O)N(CC4CC4)C3)C2)CC1 | 7.94 | 3.16 | < 0.167 | Caco-2 permeability (Homo sapiens [20]): 10 % hr-1 |
